Reference: ChEMBL document CHEMBL4346757, “Synthesis and biological evaluation of 7-methoxy-1-(3,4,5-trimethoxyphenyl)-4,5-dihydro-2H-benzo[e]indazoles as new colchicine site inhibitors” (Bioorg Med Chem Lett, 2019)

Experiments:
Format in all cases: functional
[1] = test system: SR; experiment: Growth inhibition of human SR cells assessed as cell growth at 1 uM after 48 hrs by SRB assay relative to control; settings: read-out: Activity
[2] = test system: EKVX; experiment: Growth inhibition of human EKVX cells assessed as cell growth at 1 uM after 48 hrs by SRB assay relative to control; settings: read-out: Activity
[3] = test system: NCI-H322M; experiment: Growth inhibition of human NCI-H322M cells assessed as cell growth at 0.1 uM after 48 hrs by SRB assay relative to control; settings: read-out: Activity
[4] = test system: SF-268; experiment: Cytotoxicity against human SF268 cells assessed as growth inhibition after 48 hrs by SRB assay; settings: SF-268, 48 h
[5] = test system: HCC 2998; experiment: Growth inhibition of human HCC2998 cells assessed as cell growth at 1 uM after 48 hrs by SRB assay relative to control; settings: HCC 2998, 48 h, read-out: Activity
[6] = test system: NCI-H460; experiment: Growth inhibition of human NCI-H460 cells assessed as cell growth at 100 uM after 48 hrs by SRB assay relative to control; settings: NCI-H460, 48 h, read-out: Activity
[7] = test system: A498; experiment: Growth inhibition of human A498 cells assessed as cell growth at 100 uM after 48 hrs by SRB assay relative to control; settings: A498, 48 h, read-out: Activity
[8] = test system: SNB-75; experiment: Growth inhibition of human SNB75 cells assessed as cell growth at 1 uM after 48 hrs by SRB assay relative to control; settings: SNB-75, 48 h, read-out: Activity
[9] = test system: SK-MEL-28; experiment: Growth inhibition of human SK-MEL-28 cells assessed as cell growth at 0.01 uM after 48 hrs by SRB assay relative to control; settings: SK-MEL-28, 48 h, read-out: Activity
[10] = test system: MDA-MB-468; experiment: Growth inhibition of human MDA-MB-468 cells assessed as cell growth at 100 uM after 48 hrs by SRB assay relative to control; settings: MDA-MB-468, 48 h, read-out: Activity
[11] = test system: DU-145; experiment: Growth inhibition of human DU145 cells assessed as cell growth at 10 uM after 48 hrs by SRB assay relative to control; settings: DU-145, 48 h, read-out: Activity
[12] = test system: RPMI-8226; experiment: Growth inhibition of human RPMI8226 cells assessed as cell growth at 10 uM after 48 hrs by SRB assay relative to control; settings: RPMI-8226, 48 h, read-out: Activity
[13] = test system: K562; experiment: Growth inhibition of human K562 cells assessed as cell growth at 10 uM after 48 hrs by SRB assay relative to control; settings: K562, 48 h, read-out: Activity
[14] = test system: SK-MEL-28; experiment: Growth inhibition of human SK-MEL-28 cells assessed as cell growth at 10 uM after 48 hrs by SRB assay relative to control; settings: SK-MEL-28, 48 h, read-out: Activity
[15] = test system: HCC 2998; experiment: Growth inhibition of human HCC2998 cells assessed as cell growth at 100 uM after 48 hrs by SRB assay relative to control; settings: HCC 2998, 48 h, read-out: Activity
[16] = test system: UACC-62; experiment: Growth inhibition of human UACC62 cells assessed as cell growth at 1 uM after 48 hrs by SRB assay relative to control; settings: UACC-62, 48 h, read-out: Activity
[17] = test system: HCT-116; experiment: Growth inhibition of human HCT116 cells assessed as cell growth at 0.01 uM after 48 hrs by SRB assay relative to control; settings: HCT-116, 48 h, read-out: Activity
[18] = test system: OVCAR-3; experiment: Growth inhibition of human OVCAR3 cells assessed as cell growth at 0.1 uM after 48 hrs by SRB assay relative to control; settings: OVCAR-3, 48 h, read-out: Activity
[19] = test system: ACHN; experiment: Growth inhibition of human ACHN cells assessed as cell growth at 0.1 uM after 48 hrs by SRB assay relative to control; settings: read-out: Activity
[20] = test system: Hs-578T; experiment: Cytotoxicity against human Hs 578T cells assessed as growth inhibition after 48 hrs by SRB assay
[21] = test system: NCI-H460; experiment: Cytotoxicity against human NCI-H460 cells assessed as growth inhibition after 48 hrs by SRB assay; settings: NCI-H460, 48 h
[22] = test system: LOX IMVI; experiment: Growth inhibition of human LOXIMVI cells assessed as cell growth at 10 uM after 48 hrs by SRB assay relative to control; settings: read-out: Activity
[23] = test system: UO-31; experiment: Growth inhibition of human UO31 cells assessed as cell growth at 0.01 uM after 48 hrs by SRB assay relative to control; settings: UO-31, 48 h, read-out: Activity
[24] = test system: K562; experiment: Growth inhibition of human K562 cells assessed as cell growth at 100 uM after 48 hrs by SRB assay relative to control; settings: K562, 48 h, read-out: Activity
[25] = test system: U-251; experiment: Growth inhibition of human U251 cells assessed as cell growth at 0.1 uM after 48 hrs by SRB assay relative to control; settings: U-251, 48 h, read-out: Activity
[26] = test system: CAKI-1; experiment: Growth inhibition of human Caki1 cells assessed as cell growth at 0.01 uM after 48 hrs by SRB assay relative to control; settings: CAKI-1, 48 h, read-out: Activity
[27] = test system: HCT-116; experiment: Cytotoxicity against human HCT116 cells assessed as growth inhibition after 48 hrs by SRB assay; settings: HCT-116, 48 h
[28] = test system: CCRF-CEM; experiment: Growth inhibition of human CCRF-CEM cells assessed as cell growth at 100 uM after 48 hrs by SRB assay relative to control; settings: read-out: Activity
[29] = test system: NCI-H322M; experiment: Growth inhibition of human NCI-H322M cells assessed as cell growth at 100 uM after 48 hrs by SRB assay relative to control; settings: read-out: Activity
[30] = test system: M14; experiment: Growth inhibition of human M14 cells assessed as cell growth at 0.01 uM after 48 hrs by SRB assay relative to control; settings: M14, 48 h, read-out: Activity
[31] = test system: MDA-MB-231; experiment: Growth inhibition of human MDA-MB-231/ATCC cells assessed as cell growth at 100 uM after 48 hrs by SRB assay relative to control; settings: MDA-MB-231, 48 h, read-out: Activity
[32] = test system: 786-0; experiment: Growth inhibition of human 786-0 cells assessed as cell growth at 0.1 uM after 48 hrs by SRB assay relative to control; settings: 786-0, 48 h, read-out: Activity
[33] = test system: RPMI-8226; experiment: Growth inhibition of human RPMI8226 cells assessed as cell growth at 0.1 uM after 48 hrs by SRB assay relative to control; settings: RPMI-8226, 48 h, read-out: Activity
[34] = read-out: LC50 (the source's name)
[35] = read-out: pLC50 (the source's name) (converted)

## COc1ccc2c(c1)CCc1n[nH]c(-c3cc(OC)c(OC)c(OC)c3)c1-2
[1]
  growth at 1 µM: 16%
[2]
  growth at 1 µM: 52%
[3]
  growth at 0.1 µM: 40%
[4]; read-out: GI50
  GI50: < 0.01 µM
[4]; [34]
  CC50: > 100 µM
[4]; read-out: TGI
  TGI: 26.8 µM
[4]; read-out: pGI50 (converted)
  GI50: < 0.01 µM
[4]; [35]
  CC50: > 100 µM
[4]; read-out: pTGI (converted)
  TGI: 26.9 µM
[5]
  growth at 1 µM: 14%
[6]
  growth at 100 µM: -59%
[7]
  growth at 100 µM: -61%
[8]
  growth at 1 µM: 39%
[9]
  growth at 0.01 µM: 53%
[10]
  growth at 100 µM: -39%
[11]
  growth at 10 µM: 8%
[12]
  growth at 10 µM: 35%
[13]
  growth at 10 µM: 17%
[14]
  growth at 10 µM: 34%
[15]
  growth at 100 µM: -80%
[16]
  growth at 1 µM: 36%
[17]
  growth at 0.01 µM: 7%
[18]
  growth at 0.1 µM: 12%
[19]
  growth at 0.1 µM: 27%
[20]; read-out: GI50
  GI50: < 0.01 µM
[20]; read-out: LC50
  LC50: > 100 µM
[20]; read-out: TGI
  TGI: 22.3 µM
[20]; read-out: pGI50 (converted)
  GI50: < 0.01 µM
[20]; read-out: pLC50 (converted)
  LC50: > 100 µM
[20]; read-out: pTGI (converted)
  TGI: 22.4 µM
[21]; read-out: GI50
  GI50: < 0.01 µM
[21]; [34]
  CC50: 68.5 µM
[21]; read-out: TGI
  TGI: 2.06 µM
[21]; read-out: pGI50 (converted)
  GI50: < 0.01 µM
[21]; [35]
  CC50: 69.2 µM
[21]; read-out: pTGI (converted)
  TGI: 2.04 µM
[22]
  growth at 10 µM: 7%
[23]
  growth at 0.01 µM: 42%
[24]
  growth at 100 µM: 7%
[25]
  growth at 0.1 µM: 10%
[26]
  growth at 0.01 µM: 30%
[27]; read-out: GI50
  GI50: < 0.01 µM
[27]; [34]
  CC50: 48.9 µM
[27]; read-out: TGI
  TGI: 1.16 µM
[27]; read-out: pGI50 (converted)
  GI50: < 0.01 µM
[27]; [35]
  CC50: 49 µM
[27]; read-out: pTGI (converted)
  TGI: 1.15 µM
[28]
  growth at 100 µM: 25%
[29]
  growth at 100 µM: -21%
[30]
  growth at 0.01 µM: 2%
[31]
  growth at 100 µM: -18%
[32]
  growth at 0.1 µM: 17%
[33]
  growth at 0.1 µM: 51%
